Test results as given in ChEMBL document CHEMBL5212743, “Selectivity Literature for EUbOPEN Chemogenomics Library wave 3” (2023).
Each block holds one molecule with its values, some of them ahead of it.

What was measured:
[1] = biological target: Serine/threonine-protein kinase PLK2 (Homo sapiens) (UniProt Q9NYY3); assay: Selectivity interaction (KinomeScan (DiscoverX)) EUB0000698a PLK2; conditions: at 10 µM
[2] = biological target: MAP kinase-activated protein kinase 2 (Homo sapiens, UniProt P49137); assay: Selectivity interaction (Kinase panel (University of Dundee)) EUB0000169b MAPKAPK2; conditions: at 10 µM
[3] = biological target: Tyrosine-protein kinase Lck (Homo sapiens, UniProt P06239); assay: Selectivity interaction (Kinase panel (University of Dundee)) EUB0000169b LCK; conditions: at 10 µM
[4] = biological target: MAP kinase-activated protein kinase 5 (Homo sapiens) (UniProt Q8IW41); conditions: at 10 µM
Sequence of MAP kinase-activated protein kinase 5 (Homo sapiens) (Q8IW41 whole entry): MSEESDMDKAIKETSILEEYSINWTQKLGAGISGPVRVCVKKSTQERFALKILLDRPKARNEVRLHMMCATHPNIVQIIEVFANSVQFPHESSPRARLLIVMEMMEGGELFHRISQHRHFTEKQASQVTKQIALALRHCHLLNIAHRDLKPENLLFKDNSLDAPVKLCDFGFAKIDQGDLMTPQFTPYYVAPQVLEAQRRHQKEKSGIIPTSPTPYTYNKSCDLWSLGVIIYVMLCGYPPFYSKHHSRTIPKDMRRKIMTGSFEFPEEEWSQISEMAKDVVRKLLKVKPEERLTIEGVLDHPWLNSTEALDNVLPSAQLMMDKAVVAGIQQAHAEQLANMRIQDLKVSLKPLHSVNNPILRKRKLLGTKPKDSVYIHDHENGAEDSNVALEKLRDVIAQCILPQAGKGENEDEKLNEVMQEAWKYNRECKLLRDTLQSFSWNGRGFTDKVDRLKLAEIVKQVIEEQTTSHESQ

[5] = biological target: Serine/threonine-protein phosphatase 2A activator (Homo sapiens) (UniProt Q15257); assay: Selectivity interaction (Kinase panel (University of Dundee)) EUB0000169b PTPA; conditions: at 10 µM
[6] = biological target: RAC-alpha serine/threonine-protein kinase (Homo sapiens, UniProt P31749); assay: Selectivity interaction (Kinase panel (University of Dundee)) EUB0000169b AKT1; conditions: at 10 µM
[7] = biological target: Serine/threonine-protein kinase Chk1 (Homo sapiens) (UniProt O14757); assay: Selectivity interaction (Kinase panel (University of Dundee)) EUB0000169b CHEK1; conditions: at 10 µM
Sequence of Serine/threonine-protein kinase Chk1 (Homo sapiens) (O14757 whole entry): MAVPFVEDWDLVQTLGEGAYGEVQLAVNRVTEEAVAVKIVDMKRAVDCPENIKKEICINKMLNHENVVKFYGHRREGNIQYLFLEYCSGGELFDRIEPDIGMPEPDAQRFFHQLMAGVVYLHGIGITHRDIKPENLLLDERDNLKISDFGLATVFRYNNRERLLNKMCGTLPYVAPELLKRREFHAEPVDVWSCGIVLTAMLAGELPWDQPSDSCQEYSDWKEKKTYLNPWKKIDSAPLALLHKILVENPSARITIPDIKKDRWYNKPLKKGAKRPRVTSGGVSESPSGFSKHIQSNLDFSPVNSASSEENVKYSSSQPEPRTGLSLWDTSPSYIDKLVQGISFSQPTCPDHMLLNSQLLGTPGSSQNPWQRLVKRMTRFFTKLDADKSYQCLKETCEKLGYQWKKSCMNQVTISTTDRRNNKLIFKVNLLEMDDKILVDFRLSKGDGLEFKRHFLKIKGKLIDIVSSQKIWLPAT

[8] = biological target: T1, Receptor-interacting serine/threonine-protein kinase 4 (Homo sapiens) (UniProt P57078); assay: Selectivity interaction (KinomeScan (DiscoverX)) EUB0000178b RIPK4; conditions: at 1 µM
T1 sequence (whole entry): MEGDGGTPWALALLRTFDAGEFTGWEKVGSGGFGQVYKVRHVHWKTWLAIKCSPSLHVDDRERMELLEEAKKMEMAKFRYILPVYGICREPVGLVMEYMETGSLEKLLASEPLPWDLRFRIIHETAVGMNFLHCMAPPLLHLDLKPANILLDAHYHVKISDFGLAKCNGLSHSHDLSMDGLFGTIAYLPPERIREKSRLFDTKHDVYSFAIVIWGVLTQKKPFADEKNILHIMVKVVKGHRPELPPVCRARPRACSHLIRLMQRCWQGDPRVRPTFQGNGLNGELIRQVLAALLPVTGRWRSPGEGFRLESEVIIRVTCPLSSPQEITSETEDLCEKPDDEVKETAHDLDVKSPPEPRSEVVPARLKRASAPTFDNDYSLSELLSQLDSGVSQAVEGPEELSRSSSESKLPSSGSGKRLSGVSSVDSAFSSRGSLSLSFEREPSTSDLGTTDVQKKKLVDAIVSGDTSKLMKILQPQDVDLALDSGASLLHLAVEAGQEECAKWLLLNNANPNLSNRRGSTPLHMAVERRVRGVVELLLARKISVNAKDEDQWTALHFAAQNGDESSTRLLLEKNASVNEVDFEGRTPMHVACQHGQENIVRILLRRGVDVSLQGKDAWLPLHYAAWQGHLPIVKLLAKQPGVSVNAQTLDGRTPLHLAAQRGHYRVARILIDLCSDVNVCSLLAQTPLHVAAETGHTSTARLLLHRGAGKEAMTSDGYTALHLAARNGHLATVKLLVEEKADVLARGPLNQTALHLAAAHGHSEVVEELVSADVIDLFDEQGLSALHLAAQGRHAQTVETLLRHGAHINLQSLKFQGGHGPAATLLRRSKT

[9] = biological target: Mitogen-activated protein kinase kinase kinase 3 (Homo sapiens, UniProt Q99759); assay: Selectivity interaction (Enzymatic assay) EUB0000178b MAP3K3
[10] = biological target: Serine/threonine-protein kinase PLK1 (Homo sapiens, UniProt P53350); assay: Selectivity interaction (KinomeScan (DiscoverX)) EUB0000702a PLK1; conditions: at 1 µM
Sequence of Serine/threonine-protein kinase PLK1 (P53350 whole entry): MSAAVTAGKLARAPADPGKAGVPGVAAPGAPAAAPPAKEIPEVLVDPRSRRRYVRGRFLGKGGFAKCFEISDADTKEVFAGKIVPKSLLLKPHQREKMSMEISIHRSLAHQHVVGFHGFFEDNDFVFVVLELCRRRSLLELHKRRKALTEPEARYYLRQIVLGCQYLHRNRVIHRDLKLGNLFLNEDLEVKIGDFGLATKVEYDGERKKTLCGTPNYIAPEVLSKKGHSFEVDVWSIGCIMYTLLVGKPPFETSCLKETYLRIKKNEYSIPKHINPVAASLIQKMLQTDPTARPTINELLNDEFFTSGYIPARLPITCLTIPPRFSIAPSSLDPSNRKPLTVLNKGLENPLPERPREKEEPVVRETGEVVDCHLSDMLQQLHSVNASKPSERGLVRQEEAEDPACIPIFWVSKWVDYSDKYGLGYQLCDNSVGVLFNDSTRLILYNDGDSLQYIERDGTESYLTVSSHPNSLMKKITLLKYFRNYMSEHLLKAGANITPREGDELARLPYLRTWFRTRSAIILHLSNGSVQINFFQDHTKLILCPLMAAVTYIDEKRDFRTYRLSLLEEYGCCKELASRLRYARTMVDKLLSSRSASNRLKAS

[11] = biological target: Serine/threonine-protein kinase 16 (Homo sapiens, UniProt O75716); assay: Selectivity interaction (KinomeScan (DiscoverX)) EUB0000702a STK16; conditions: at 1 µM
[12] = biological target: Ribosomal protein S6 kinase alpha-6 (Homo sapiens) (UniProt Q9UK32); assay: Selectivity interaction (KinomeScan (DiscoverX)) EUB0000702a RPS6KA6; conditions: at 1 µM
Sequence of Ribosomal protein S6 kinase alpha-6 (Homo sapiens) (Q9UK32 whole entry): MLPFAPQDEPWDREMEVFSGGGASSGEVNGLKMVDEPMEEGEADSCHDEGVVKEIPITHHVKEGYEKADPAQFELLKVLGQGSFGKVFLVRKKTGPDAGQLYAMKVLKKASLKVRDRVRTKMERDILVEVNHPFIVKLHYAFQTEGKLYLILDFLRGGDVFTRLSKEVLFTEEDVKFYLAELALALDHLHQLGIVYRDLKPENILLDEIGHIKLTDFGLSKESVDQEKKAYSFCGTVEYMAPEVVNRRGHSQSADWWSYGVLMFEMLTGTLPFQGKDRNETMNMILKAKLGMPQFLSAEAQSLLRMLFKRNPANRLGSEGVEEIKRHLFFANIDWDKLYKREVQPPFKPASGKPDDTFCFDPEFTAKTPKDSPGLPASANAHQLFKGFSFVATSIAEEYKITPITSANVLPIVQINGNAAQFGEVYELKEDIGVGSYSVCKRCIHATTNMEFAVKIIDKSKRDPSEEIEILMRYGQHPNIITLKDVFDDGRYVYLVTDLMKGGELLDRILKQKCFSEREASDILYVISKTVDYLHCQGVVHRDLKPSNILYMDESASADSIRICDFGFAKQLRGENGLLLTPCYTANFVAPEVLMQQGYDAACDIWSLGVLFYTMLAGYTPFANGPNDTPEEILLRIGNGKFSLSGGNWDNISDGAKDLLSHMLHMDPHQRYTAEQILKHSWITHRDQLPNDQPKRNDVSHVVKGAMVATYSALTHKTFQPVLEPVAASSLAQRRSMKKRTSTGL

[13] = system: Receptor-type tyrosine-protein kinase FLT3 (Homo sapiens), P36888 [UNDEFINED MUTATION]; assay: Selectivity interaction (KinomeScan (DiscoverX)) EUB0000702a FLT3; conditions: at 1 µM
Sequence of Receptor-type tyrosine-protein kinase FLT3 (Homo sapiens), P36888 [UNDEFINED MUTATION] (P36888 whole entry, looked up, change not shown): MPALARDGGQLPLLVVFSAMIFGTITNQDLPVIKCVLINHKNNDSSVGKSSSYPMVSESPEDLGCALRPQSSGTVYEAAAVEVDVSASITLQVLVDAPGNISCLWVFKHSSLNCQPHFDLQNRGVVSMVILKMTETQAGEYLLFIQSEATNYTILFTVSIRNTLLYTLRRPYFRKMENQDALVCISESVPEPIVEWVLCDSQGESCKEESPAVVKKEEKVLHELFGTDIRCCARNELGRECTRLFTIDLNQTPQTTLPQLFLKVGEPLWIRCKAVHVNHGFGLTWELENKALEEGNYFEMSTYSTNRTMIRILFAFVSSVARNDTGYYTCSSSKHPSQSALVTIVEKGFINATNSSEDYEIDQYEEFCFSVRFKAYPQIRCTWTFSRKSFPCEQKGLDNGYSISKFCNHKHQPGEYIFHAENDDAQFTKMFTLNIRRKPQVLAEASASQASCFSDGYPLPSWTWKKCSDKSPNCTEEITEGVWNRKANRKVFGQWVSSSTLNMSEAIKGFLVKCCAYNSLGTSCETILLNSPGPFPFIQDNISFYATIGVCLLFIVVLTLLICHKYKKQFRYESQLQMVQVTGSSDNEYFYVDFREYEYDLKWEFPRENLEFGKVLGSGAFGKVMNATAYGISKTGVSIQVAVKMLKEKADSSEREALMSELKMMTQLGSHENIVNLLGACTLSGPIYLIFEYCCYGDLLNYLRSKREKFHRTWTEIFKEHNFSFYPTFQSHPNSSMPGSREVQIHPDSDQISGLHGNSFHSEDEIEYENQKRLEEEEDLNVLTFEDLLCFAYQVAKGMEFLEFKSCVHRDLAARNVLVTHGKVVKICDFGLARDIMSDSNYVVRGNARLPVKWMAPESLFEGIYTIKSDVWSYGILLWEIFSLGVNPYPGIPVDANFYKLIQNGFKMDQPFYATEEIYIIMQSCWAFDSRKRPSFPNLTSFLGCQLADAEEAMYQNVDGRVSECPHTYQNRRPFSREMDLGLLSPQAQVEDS

Focal adhesion kinase 1 = Focal adhesion kinase 1 (Homo sapiens, UniProt Q05397); assay: Selectivity interaction (KinomeScan (DiscoverX)) EUB0000702a PTK2; conditions: at 1 µM
Sequence of Focal adhesion kinase 1 (Q05397 2-1052 limits assumed): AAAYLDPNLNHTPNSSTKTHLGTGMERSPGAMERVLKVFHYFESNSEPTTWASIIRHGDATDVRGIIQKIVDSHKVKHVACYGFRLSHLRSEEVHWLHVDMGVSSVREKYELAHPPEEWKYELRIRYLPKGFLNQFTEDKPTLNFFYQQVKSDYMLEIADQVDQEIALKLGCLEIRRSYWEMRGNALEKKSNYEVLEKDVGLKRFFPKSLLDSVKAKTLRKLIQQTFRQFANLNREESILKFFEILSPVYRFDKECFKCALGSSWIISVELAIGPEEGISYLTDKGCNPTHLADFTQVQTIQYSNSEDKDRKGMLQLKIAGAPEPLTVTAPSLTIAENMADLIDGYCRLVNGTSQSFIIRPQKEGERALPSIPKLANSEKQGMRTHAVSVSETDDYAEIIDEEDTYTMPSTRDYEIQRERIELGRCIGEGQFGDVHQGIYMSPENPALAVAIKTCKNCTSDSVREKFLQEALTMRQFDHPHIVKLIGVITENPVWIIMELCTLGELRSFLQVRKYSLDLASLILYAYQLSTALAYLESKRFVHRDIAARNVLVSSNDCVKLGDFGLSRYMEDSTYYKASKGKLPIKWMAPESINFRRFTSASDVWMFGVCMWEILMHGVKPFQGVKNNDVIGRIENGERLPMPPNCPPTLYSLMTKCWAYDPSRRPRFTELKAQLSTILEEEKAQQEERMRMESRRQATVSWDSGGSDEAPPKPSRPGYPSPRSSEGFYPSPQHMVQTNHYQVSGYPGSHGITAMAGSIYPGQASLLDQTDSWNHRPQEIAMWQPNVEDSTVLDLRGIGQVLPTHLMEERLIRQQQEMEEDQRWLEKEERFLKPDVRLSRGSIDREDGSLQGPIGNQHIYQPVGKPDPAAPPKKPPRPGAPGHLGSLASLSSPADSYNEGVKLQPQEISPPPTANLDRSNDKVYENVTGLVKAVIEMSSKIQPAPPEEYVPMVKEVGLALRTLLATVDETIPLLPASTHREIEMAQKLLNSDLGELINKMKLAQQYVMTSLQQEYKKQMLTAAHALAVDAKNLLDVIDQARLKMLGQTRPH

[14] = biological target: T2, Serine/threonine-protein kinase ULK2 (Homo sapiens) (UniProt Q8IYT8); assay: Selectivity interaction (KinomeScan (DiscoverX)) EUB0000702a ULK2; conditions: at 1 µM
T2 sequence (whole entry): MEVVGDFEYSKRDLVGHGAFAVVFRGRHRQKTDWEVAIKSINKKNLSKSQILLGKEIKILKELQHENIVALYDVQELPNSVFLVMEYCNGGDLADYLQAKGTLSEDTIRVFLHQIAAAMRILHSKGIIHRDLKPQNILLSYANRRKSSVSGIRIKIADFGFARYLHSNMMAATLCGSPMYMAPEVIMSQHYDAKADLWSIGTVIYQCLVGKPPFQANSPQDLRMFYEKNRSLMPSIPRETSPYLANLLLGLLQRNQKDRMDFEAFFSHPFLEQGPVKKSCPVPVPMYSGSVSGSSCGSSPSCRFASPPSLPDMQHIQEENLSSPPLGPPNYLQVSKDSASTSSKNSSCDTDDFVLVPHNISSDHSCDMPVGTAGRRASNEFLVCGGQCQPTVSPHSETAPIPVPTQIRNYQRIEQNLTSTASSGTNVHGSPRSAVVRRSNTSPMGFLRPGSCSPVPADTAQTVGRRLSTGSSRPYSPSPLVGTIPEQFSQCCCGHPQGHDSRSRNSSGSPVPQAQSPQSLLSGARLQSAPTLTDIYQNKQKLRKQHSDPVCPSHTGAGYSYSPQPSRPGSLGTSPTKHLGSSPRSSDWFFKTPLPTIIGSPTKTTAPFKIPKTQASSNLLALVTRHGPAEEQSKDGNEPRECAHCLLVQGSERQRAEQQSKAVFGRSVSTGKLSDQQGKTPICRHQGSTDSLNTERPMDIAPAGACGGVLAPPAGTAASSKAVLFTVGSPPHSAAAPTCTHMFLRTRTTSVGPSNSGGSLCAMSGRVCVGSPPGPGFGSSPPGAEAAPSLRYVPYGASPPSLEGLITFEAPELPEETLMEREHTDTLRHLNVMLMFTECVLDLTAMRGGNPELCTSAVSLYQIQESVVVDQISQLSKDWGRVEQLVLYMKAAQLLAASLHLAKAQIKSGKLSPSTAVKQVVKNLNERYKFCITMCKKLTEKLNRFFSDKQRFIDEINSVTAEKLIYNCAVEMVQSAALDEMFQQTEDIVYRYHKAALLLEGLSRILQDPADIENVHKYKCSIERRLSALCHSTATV

D(1A) dopamine receptor = D(1A) dopamine receptor (Homo sapiens, UniProt P21728); assay: Selectivity interaction (GPCR panel (PDSP screen)) EUB0000138c DRD1
Sequence of D(1A) dopamine receptor (P21728 whole entry): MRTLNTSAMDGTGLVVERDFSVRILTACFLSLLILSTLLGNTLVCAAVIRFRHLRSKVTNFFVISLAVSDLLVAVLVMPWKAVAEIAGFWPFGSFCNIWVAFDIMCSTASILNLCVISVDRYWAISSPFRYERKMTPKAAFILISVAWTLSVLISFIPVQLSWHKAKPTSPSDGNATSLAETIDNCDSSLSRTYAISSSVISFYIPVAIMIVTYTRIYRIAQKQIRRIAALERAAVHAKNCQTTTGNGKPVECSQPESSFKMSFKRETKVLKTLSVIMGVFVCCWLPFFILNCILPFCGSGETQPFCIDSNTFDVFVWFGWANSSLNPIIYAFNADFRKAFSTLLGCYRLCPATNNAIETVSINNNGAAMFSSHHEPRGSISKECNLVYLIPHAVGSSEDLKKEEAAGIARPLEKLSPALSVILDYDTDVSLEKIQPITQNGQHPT

Compound: COc1cc2ncn(-c3cc(OCc4ccccc4C(F)(F)F)c(C(N)=O)s3)c2cc1OC [GW843682X]
- % of control [1]: 0.2%

Compound: CN(c1ccnc(CNc2nc(Nc3ccc4c(c3)CC(=O)N4)ncc2C(F)(F)F)n1)S(C)(=O)=O [PF-00911705]
- % of control [10]: 7.6%
- % of control [11]: 1.5%
- % of control [12]: 4.6%
- % of control [13]: 0%
- % of control (Focal adhesion kinase 1): 4.9%
- % of control [14]: 5.4%

Compound: CNC(=O)c1ccc(Nc2ncc(C(F)(F)F)c(NCc3nccnc3N(C)S(C)(=O)=O)n2)cc1 [DEFACTINIB]
- Ki (D(1A) dopamine receptor): > 10 µM

Further lines, results first:

- % of control [2]: 79%
- % of control [3]: 55%
- % of control [4]: 86%
- % of control [5]: 56%
- % of control [6]: 90%
- % of control [7]: 91%
Compound: CC[C@@H]1C(=O)N(C)c2cnc(Nc3ccc(C(=O)NC4CCN(C)CC4)cc3OC)nc2N1C1CCCC1

- % of control [8]: 9.5%
- IC50 [9]: 34.8 nM
Compound: CN1C(=O)c2sccc2N(C)c2nc(Nc3ccc(S(N)(=O)=O)cc3)ncc21
